Assay results reported in patent US20120082727A1, “USE OF MAGNESIUM STEARATE IN DRY POWDER FORMULATIONS FOR INHALATION” (CHIESI FARMACEUTICI S.p.A., priority 2010, published 2012).

Test: Chemical stability of dry powder formulations on storage in glass vials, residual test compound and hydrolysis product by UPLC
Format: physicochemical
Settings: 25 °C, 60% rel. humidity; for CHF 5551.02 values (%): hydrolysis degradation product
Description: Dry powder formulations were prepared comprising as a carrier either particles of alpha-lactose monohydrate 212-355 microns alone (coarse) or coated with magnesium stearate (coated). Said coated particles were obtained by mixing alpha-lactose monohydrate with 1% magnesium stearate in a Turbula mixer for 4 hours.
Samples of the manufactured mixtures were filled in glass vials and stored under stressing conditions ([…]) in comparison to a sample stored under long tem conditions (25 ° C., 60% relative humidity).
The percentage amount of residual test compound and of the degradation product due to hydrolysis, (R)-1-hydroxy-(2-oxo-2-thiophen-2-yl-ethyl)-1-azonia-bicyclo[2.2.2]octane; chloride quoted as CHF 5551.02, was determined in the two formulations by ultra performance liquid chromatography (UPLC) in comparison to the active ingredient without the carrier (API). The variation of CHF 5551.2 content with the time is also plotted in FIG. 3.

O=C(OC(c1cccc(F)c1)c1cccc(F)c1)O[C@H]1C[N+]2(CC(=O)c3cccs3)CCC1CC2.[Cl-] [Test compound, (R)-3-[bis-(3-fluoro-phenyl)-methoxycarbonyloxy]-1-(2-oxo-2-thiophen-2-yl-ethyl)-1-azonia-bicyclo[2.2.2]octane; chloride]
Test compound values (%) (0 days): 100.0%
Test compound values (%) (2 days): 99.9%
Test compound values (%) (4 days): 99.9%
Test compound values (%) (7 days): 99.9%
Test compound values (%) (9 days): 99.9%
Test compound values (%) (11 days): 99.9%
Test compound values (%) (14 days): 100.0%
CHF 5551.02 values (%) (0 days): 0.08%
CHF 5551.02 values (%) (2 days): 0.20%
CHF 5551.02 values (%) (4 days): 0.29%
CHF 5551.02 values (%) (7 days): 0.24%
CHF 5551.02 values (%) (9 days): 0.28%
CHF 5551.02 values (%) (11 days): 0.29%
CHF 5551.02 values (%) (14 days): 0.23%
